“Also recorded” adds a separate entry of the source. Bridge positions count the residues as written; N and C are the ends. Square brackets hold non-standard residues; d marks the D form. Peptide text beside a SMILES is read from it. R8 = C=CCCCCCC[C@@](C)(N)C(=O)O; S5 = C=CCCC[C@](C)(N)C(=O)O
How the values were obtained:
[1] = target: T1, Beclin 1 coiled coil domain (Homo sapiens, UniProt Q14457); assay: Isothermal titration calorimetry (ITC) binding affinity; conditions: 25° C., pH 7.4, Tat-fused peptide, read-out: Kd
T1 construct: the coiled coil domain of human Beclin 1 (residues 176-268); thioredoxin-6xHis fusion tag with HRV 3C protease cleavage site; made in house; host or cells: Escherichia coli BL21(DE3)
Description: The expression and purification of Beclin 1 coiled coil domain is performed as described previously. Briefly, the coiled coil domain of human Beclin 1 (residues 176-268) is cloned into the modified pET32a vector containing the human rhinovirus (HRV) 3C protease cleavage site and thioredoxin-6×His fusion tag. Recombinant protein for the Beclin1 coiled oil domain is expressed in Escherichia coli BL21(DE3) and purified by Ni^2+-NTA affinity chromatography (His Trap HP, GE Healthcare) first and followed by size-exclusion chromatography (Superdex 75, GE Healthcare).
ITC assays are carried out by MicroCal PEAQ-ITC Automated (Marvern) at 25° C. All designed peptides and purified protein for the Beclin 1 coiled coil domain are dialyzed into the buffer containing 50 mM Tris, 150 mM NaCl at pH 7.4. For each titration assay, the injection syringe is loaded with 40 μl of peptide and the cell is loaded with Beclin 1 coiled coil domain protein. Typically, titrations consist of 19 injections, and each injection is performed at a time interval of 180 seconds to ensure that the titration peak returns to the baseline. The titration data are analyzed using the MicroCal PEAQ-ITC Analysis software and fitted by the one-site binding model.

[2] = system: HEK293T cells; assay: Trypan blue exclusion cytotoxicity assay in HEK293T cells; type: cell-based
Description: FIG. 7 is a schematic diagram of the result of evaluating the cytotoxicity of the newly designed stapled peptide on HEK293T cells by the trypan blue exclusion assay.
(§1) Cell viability is measured by trypan blue exclusion assay following the standard protocol provided by the manufacturer. SKBR3 cells are seeded on 96-well plates containing complete medium at a density of 1×10^4 cells per well. Upon cell attachment, cells are treated with the indicated stapled peptide or vehicle control for 24 hours. Afterwards, the number of trypan blue positive staining cells and the number of total cells are manually counted under a light microscope (Olympus). Cell viability is calculated as the number of viable cells divided by the total number of cells. All experiments are repeated in triplicate and the mean is calculated.

[3] = system: HEK293T cells; assay: Western blot of autophagy markers LC3 and p62; type: cell-based
Description: FIG. 8 is a schematic diagram showing that the peptides based on the i7-01s scaffold are effective inducers of autophagy. (a) Western blot to assess the p62 level and LC3 lipidation profile in HEK293T cells after treatment with 10- and 20-μM i7-01s-31 for 3 hours, in the presence or absence of CQ. (b)&(c) Quantification of LC3 lipidation profiles from the Western blot data. (d)&(e) Quantification of p62 levels from the Western blot data from (a).
The impact of these two peptides on cellular autophagic activity is examined by detecting the protein levels of LC3 and p62, two molecular markers of autophagy. During the autophagy process, cytosolic protein LC3 is converted from its apo form (LC3-I) to lipidated form (LC3-II) for accumulation on autophagosomes. Thus, an increase in LC3-II level is regarded as a reliable indicator of elevated cellular autophagic activity. Similarly, p62 is an autophagy receptor that is degraded in the lysosome together with autophagic substrates. A decrease in p62 level is also commonly used as an indicator for higher autophagic activity, although some studies have shown that p62 is not as sensitive as LC3-II.
(§2) Whole cell lysates are extracted using Laemmli sample buffer (62.5 mM Tris-HCl, pH 6.8, 2% SDS, 25% glycerol, 5% β-mercaptoethanol) supplemented with EDTA-free protease inhibitor cocktail (Roche). Protein concentration is determined using a standard Bradford assay before immunoblotting. Protein samples are separated by SDS-PAGE, transferred to a PVDF membrane (Millipore, USA), and incubated with the primary antibodies and HRP-conjugated secondary antibodies. Protein bands are visualized using ECL reagents. β-actin is used as the internal reference protein to control the loading amount of SDS-PAGE.

[4] = system: HER2; assay: EGF-induced endolysosomal degradation of HER2, Western blot; type: cell-based; conditions: SKBR3, 2 μM
Description: (§3) FIG. 9 is a schematic diagram of the result showing peptides based on (I7-01s) scaffold are potent inducers of endolysosomal trafficking. (a-c) Western blot to assess the HER2 and EGFR levels in SKBR3 cells. Cells are starved overnight and are treated with 200 ng/ml EGF respectively with vehicle control (a), 2 μM Tat-SP4 (b), 2 μM i7-01s-31 (c). (d & e) Time-dependent plots to quantify HER2 and EGFR degradation profiles after three independent experiments. The levels of HER2 (d) and EGFR (e) are normalized to the β-actin level at different time points and then further normalized to time 0, when the ligand EGF is added. Data are presented as mean±SEM (n=3).
In some embodiments, the Beclin 1-targeting stapled peptide provided by the present disclosure can effectively promote endolysosomal trafficking. As a scaffolding member of the PI3KC3 complex, Beclin 1 is essential for multiple PI3KC3-dependent processes including autophagy, endolysosomal trafficking and phagocytosis. To assess the efficacy of the newly designed peptides on the endolysosomal trafficking process, the ligand-induced endolysosomal degradation of cell surface receptors HER2 and EGFR is characterized by western blotting using SKBR3 breast cancer cell line that over-expresses both EGFR and HER2. […] In contrast, i7-01s-31 treatment at 2 μM results in significant reduction of HER2 level, with about 50% decrease at 15 hours post EGF stimulation, and about 70% decrease at 24 hours (as shown in FIGS. 9c & 9d). i7-01s-31 treatment also strongly promotes EGFR degradation, with approximately 60% reduction at 15 hours post EGF stimulation (as shown in FIGS. 9c & 9e).
as §2, with “Protein bands are visualized using ECL reagents. β-actin is used as the internal reference protein to control the loading amount of SDS-PAGE.” left out

[5] = system: EGFR; assay: EGF-induced endolysosomal degradation of EGFR, Western blot; type: cell-based; conditions: SKBR3, 2 μM, 15 hours post EGF stimulation
Description: as §3
In some embodiments, the Beclin 1-targeting stapled peptide provided by the present disclosure can effectively promote endolysosomal trafficking. As a scaffolding member of the PI3KC3 complex, Beclin 1 is essential for multiple PI3KC3-dependent processes including autophagy, endolysosomal trafficking and phagocytosis. […]
Whole cell lysates are extracted using Laemmli sample buffer (62.5 mM Tris-HCl, pH 6.8, 2% SDS, 25% glycerol, 5% β-mercaptoethanol) supplemented with EDTA-free protease inhibitor cocktail (Roche). Protein concentration is determined using a standard Bradford assay before immunoblotting. […]

[6] = system: SKBR3 cells; assay: Trypan blue exclusion assay, IC50 in SKBR3 cells; type: cell-based; conditions: SKBR3, 24h
Description: (§4) (a) Trypan blue exclusion assay to assess the cytotoxicity IC50 (half maximal inhibitory concentration) of the indicated peptides in SKBR3 cells. Cells are treated with various concentrations of the indicated peptides for 24h. Cell numbers are manually counted by the trypan blue exclusion assay using a hemocytometer. Data are presented as mean±SD from three independent experiments. (b-d) Cell proliferation assay is performed over a time span of five days in SKBR3 cells after treatment with the indicated peptides. Cells are treated with the indicated peptides at day 0 and the cell number is calculated at the given time points. The assay is performed in 96 well plates with three independent measurements. Tat-SC4 is a control peptide with scrambled Tat-SP4 sequence but without the hydrocarbon staple.
as §1, with “Upon cell attachment, cells are treated with the indicated stapled peptide or vehicle control for 24 hours.” left out

[7] = system: SKBR3 cells; assay: Five-day cell proliferation assay; type: cell-based; conditions: SKBR3, five days, 10 μM
Description: as §4

[8] = system: SKBR3 cells; assay: Flow cytometry with Annexin V FITC-PI staining; type: cell-based
Description: FIG. 12 is a schematic diagram of the result showing the peptides based on strategy (i7-01s) scaffold induce cell death with necrotic features. Flow cytometry analysis with Annexin V FITC-PI staining is performed in SKBR3 cells after treatment of the indicated peptides for 24 hours.
The degree of cellular apoptosis and necrosis is assessed by flow cytometry following the standard protocol provided by the manufacturer. Briefly, SKBR3 cells after the indicated peptide treatment are harvested by trypsin, labelled with Annexin V and PI (Invitrogen), subjected to flow cytometer system (BD Accuri C6), and analyzed by BD Accuri C6 software. The cell populations can be distinguished by the staining of Annexin V/PI. Typically, cellular population in the lower left quadrant is live cells (Annexin V^−, PI^−), the lower right quadrant represents early apoptotic cells (Annexin V^+, PI^−), the upper right quadrant represents late apoptotic cells (Annexin V^+, PI^+), the upper left quadrant represents necrotic cells (Annexin V^−, PI^+).

T1 sequence (Q14457 176-268): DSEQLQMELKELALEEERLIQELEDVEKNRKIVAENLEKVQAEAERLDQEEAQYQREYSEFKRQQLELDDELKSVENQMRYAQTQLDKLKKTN

## CC[C@H](C)[C@@H]1NC(=O)[C@H](C(C)C)NC(=O)[C@H](CC(=O)O)NC(=O)[C@H](C(C)C)NC(=O)[C@H](CC(C)C)NC(=O)[C@](C)(NC(=O)[C@H](CC(N)=O)NC(=O)[C@H](Cc2ccccc2)NC(=O)[C@H](CC(C)C)NC(=O)[C@@H](NC(=O)[C@H](CCCNC(=N)N)NC(=O)[C@H](CCCNC(=N)N)NC(=O)[C@H](CCCNC(=N)N)NC(=O)[C@H](CCC(N)=O)NC(=O)[C@H](CCCNC(=N)N)NC(=O)[C@H](CCCNC(=N)N)NC(=O)[C@H](CCCCN)NC(=O)[C@H](CCCCN)NC(=O)[C@H](CCCNC(=N)N)NC(=O)CNC(=O)[C@H](Cc2ccc(O)cc2)NC(C)=O)C(C)C)CCCCCCC=CCCC[C@@](C)(C(=O)N[C@@H](CCCNC(=N)N)C(=O)N[C@@H](CCCCN)C(=O)N[C@H](C(N)=O)C(C)C)NC(=O)[C@H](CCCCN)NC1=O [i7-01s-31] (Ac-YGRKKRRQRRRVLFN[R8]LVDVIK[S5]RKV-NH2; staple 16-23)
[1]
  Kd: 0.33 ± 0.28 µM
[2]; 5 μM, 24 hours
  cell viability: little impact on cell viability
[2]; 20 μM, 24 h
  cytotoxicity: negligible cytotoxicity
[3]
  autophagy induction compared with Tat-SP4: comparable efficacy
[3]; 10 and 20 μM, 3 hours, absence of CQ
  LC3-II levels: noticeable albeit small increase
[3]; 10 and 20 μM, 3 hours, presence of chloroquine (CQ)
  LC3-II levels: significantly stronger
[3]; 10 and 20 μM, 3 hours, presence or absence of CQ
  protein level of p62: does not show any noticeable change
[4]; 15 hours post EGF stimulation
  decrease of HER2 level: about 50%
[4]; 24 hours post EGF stimulation
  decrease of HER2 level: about 70%
[5]
  reduction of EGFR: approximately 60%
[6]
  IC50: 7.12 µM
[7]
  effect on cell proliferation: completely abolish cell proliferation
[8]; SKBR3, 10 μM, 24 hours
  PI positive cells: approximately 30%
[8]; SKBR3, 24 hours
  change of Annexin V positive cells (apoptosis): without notable changes; also recorded: no increase
  change of PI positive staining cells (dead cells): significantly increased; also recorded: significant increase

From patent publication US20240190920A1, “BECLIN 1-TARGETED STAPLED PEPTIDE AND PHARMACEUTICAL COMPOSITION” (Shenzhen Research Institute of the Hong Kong Polytechnic …, priority 2021, published 2024)
